Some test systems named below: HOP-92 NSCLC; HT29 colon; MDA-MB-231 breast; RPMI-8226 leukemia; SF-539 CNS; SN12C renal; TK-10 renal; IGROV1 ovarian; NCI-H23 lung; LOX IMVI melanoma.
Assay in all cases: inhibition of tumour cell growth, NCI panel, 48 h

Molecules are shown by their SMILES.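 All cell lines were grown in 96-well plates and treated with compound for 48 hours. At the GI50, growth is halved. The concentration for full growth arrest is given as TGI.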

As for `C=C(CNCCc1ccc(O)cc1)[C@@H]1CC[C@]2(CO)CC[C@]3(C)[C@H](CC[C@@H]4[C@@]5(C)CCC(N)C(C)(C)[C@@H]5CC[C@]43C)[C@@H]12` (stereo not given in full), the GI50 in the assay with HOP-92 NSCLC is 1.12 µM; with HT29 colon it was 0.46 µM; with MDA-MB-231 breast it was 1.11 µM; with RPMI-8226 leukemia, 1.44 µM; in the assay on SF-539 CNS, 1.56 µM; in the assay on SN12C renal, 1.56 µM. In addition, the GI50 in the assay on TK-10 renal is 1.73 µM. In addition, the TGI with HOP-92 NSCLC worked out at 2.49 µM; in the assay on HT29 colon, 1.81 µM; in the assay on MDA-MB-231 breast, 2.38 µM; in the assay on RPMI-8226 leukemia, 4.04 µM; with SF-539 CNS, 2.94 µM; in the assay with SN12C renal it was 3.02 µM. In the assay with TK-10 renal, the TGI turned out to be 3.22 µM.
Take `O=C(/C=C/c1cn(-c2ccccc2)nc1-c1ccc([N+](=O)[O-])cc1)c1ccc(Cl)cc1`: the GI50 was 3.36 µM in the assay on HOP-92 NSCLC; 3.54 µM in the assay on IGROV1 ovarian; 2.9 µM with MDA-MB-231 breast; 3.67 µM in the assay on NCI-H23 lung; 2.19 µM with SF-539 CNS; 4.54 µM with SN12C renal. Moreover, the GI50 in the assay with TK-10 renal was 3.09 µM. For the same compound, the TGI in the assay with HOP-92 NSCLC is 70.1 µM; with IGROV1 ovarian, more than 100 µM; in the assay on MDA-MB-231 breast, more than 100 µM; in the assay on NCI-H23 lung it was more than 100 µM; with SN12C renal, more than 100 µM; in the assay with TK-10 renal, 13.4 µM.
In the case of `CCN(CC)CCOc1ccc(/C=C2\CC3C4CC=C5C[C@@H](OC(C)=O)CC[C@]5(C)C4CC[C@]3(C)C2=O)cc1OC` (stereo not given in full), the GI50 with HOP-92 NSCLC is 13.3 µM; in the assay with HT29 colon, 4.07 µM; with IGROV1 ovarian, 4.65 µM; in the assay with MDA-MB-231 breast it was 21.1 µM; in the assay on NCI-H23 lung it was 12.4 µM; in the assay with RPMI-8226 leukemia, 1.71 µM. For the same compound, the GI50 in the assay on SN12C renal is 12.6 µM; with TK-10 renal it was 2.53 µM. Moreover, the TGI was 37.7 µM in the assay with HOP-92 NSCLC; more than 100 µM with HT29 colon; 16.4 µM in the assay on IGROV1 ovarian; more than 100 µM with MDA-MB-231 breast; 49.5 µM in the assay on NCI-H23 lung; 4.63 µM with RPMI-8226 leukemia. Also, the TGI with SN12C renal was determined as 30.1 µM; in the assay with TK-10 renal it was 6.1 µM.
Turning to `O=C1C(c2ccccc2)=C(c2ccccc2)[C@H](c2ccccc2)[C@]1(Cc1nnn(-c2ccc([N+](=O)[O-])cc2)c1N1CCOCC1)c1ccccc1`, the TGI in the assay with HOP-92 NSCLC was 2.25 µM; with HT29 colon, more than 37.5 µM; in the assay with IGROV1 ovarian it was more than 37.5 µM; with LOX IMVI melanoma, more than 37.5 µM; in the assay on NCI-H23 lung, more than 37.5 µM; in the assay with RPMI-8226 leukemia, more than 37.5 µM. Also, the TGI in the assay with SF-539 CNS, with SN12C renal and with TK-10 renal was more than 37.5 µM throughout.
As for `COC(=O)C1(F)C(=O)NC(=O)NC1OC` (stereo not given), the TGI with HOP-92 NSCLC, in the assay on HT29 colon, in the assay with IGROV1 ovarian, in the assay on LOX IMVI melanoma, in the assay on NCI-H23 lung and in the assay with RPMI-8226 leukemia was more than 100 µM throughout. Moreover, the TGI in the assay with SF-539 CNS, in the assay on SN12C renal and in the assay with TK-10 renal was more than 100 µM each time.
Take `Cn1cc(CO)c2ccccc21`: the GI50 is 33.9 µM in the assay with HOP-92 NSCLC; 30.2 µM in the assay with HT29 colon; 10.9 µM with IGROV1 ovarian; 52 µM with MDA-MB-231 breast; 48.2 µM in the assay with NCI-H23 lung; 99.9 µM with RPMI-8226 leukemia. Besides, the GI50 is 40.6 µM in the assay on SF-539 CNS, 50.9 µM in the assay with SN12C renal and more than 100 µM in the assay with TK-10 renal. In addition, the TGI in the assay with HOP-92 NSCLC, in the assay with HT29 colon, in the assay on IGROV1 ovarian, with MDA-MB-231 breast, in the assay with NCI-H23 lung and in the assay on RPMI-8226 leukemia was more than 100 µM in each case. In addition, the TGI in the assay on SF-539 CNS, with SN12C renal and in the assay on TK-10 renal was more than 100 µM in each case.
As to `NS(=O)(=O)c1ccc(NC(=O)c2cccn3c(=O)c4ccccc4nc23)cc1`, the TGI in the assay with HOP-92 NSCLC, with HT29 colon, in the assay with IGROV1 ovarian, with LOX IMVI melanoma, in the assay on NCI-H23 lung and with RPMI-8226 leukemia was more than 100 µM throughout. In addition, the TGI with SF-539 CNS, with SN12C renal and in the assay on TK-10 renal was more than 100 µM in each case.
For `NC(N)=N/N=C/c1c(-c2ccc(Cl)c([N+](=O)[O-])c2)nc2n1CCS2`, the GI50 was 6.13 µM in the assay with HT29 colon; 2.43 µM with LOX IMVI melanoma; 2.88 µM in the assay with MDA-MB-231 breast; 14.3 µM with NCI-H23 lung; 3.66 µM with RPMI-8226 leukemia; 7.4 µM with SF-539 CNS. The GI50 in the assay on SN12C renal is 2.29 µM. In addition, the TGI came out at 30.9 µM in the assay with HT29 colon; 7.09 µM in the assay with LOX IMVI melanoma; 8.86 µM in the assay on MDA-MB-231 breast; 27.3 µM with NCI-H23 lung; 10.9 µM in the assay with RPMI-8226 leukemia; 26.5 µM with SF-539 CNS. This compound also registered a TGI with SN12C renal of 9.04 µM.
Regarding `COC(=O)c1cc2c3c(ccc2[nH]1)N(C(=O)c1cc2c4c(ccc2[nH]1)N(C(=O)c1cc2c5c(ccc2[nH]1)N(C(N)=O)CC5)CC4)CC3`, the TGI in the assay with HOP-92 NSCLC is 7.31 µM; in the assay with HT29 colon, more than 100 µM; with IGROV1 ovarian, 20.5 µM; in the assay with LOX IMVI melanoma, more than 34 µM; in the assay on NCI-H23 lung, more than 100 µM; with RPMI-8226 leukemia, more than 100 µM. The figures for the TGI in the assay with SF-539 CNS, in the assay with SN12C renal and in the assay with TK-10 renal were more than 34.8 µM, 49.4 µM and 47 µM, respectively.
Consider `Nc1ccn([C@@H]2C(F)=C(CO)[C@@H](O)[C@H]2O)c(=O)n1`, for which the GI50 in the assay on HT29 colon is 0.625 µM; in the assay with IGROV1 ovarian, 2.88 µM; with LOX IMVI melanoma, 0.453 µM; in the assay on MDA-MB-231 breast, 2.73 µM; in the assay with NCI-H23 lung, 3.84 µM; in the assay with SF-539 CNS, 1.94 µM. The GI50 was 0.448 µM with SN12C renal and 6.73 µM with TK-10 renal. Moreover, the TGI in the assay on HT29 colon, in the assay with IGROV1 ovarian, with LOX IMVI melanoma, in the assay with MDA-MB-231 breast, in the assay with NCI-H23 lung and with SF-539 CNS was more than 100 µM throughout. For the same compound, the TGI in the assay with SN12C renal and in the assay on TK-10 renal was more than 100 µM in each case.
For the compound `O=C(Nc1cc(S(=O)(=O)c2ccc(Cl)cc2)ccc1Cl)c1cc(I)cc(I)c1O`, the GI50 in the assay on HT29 colon is 16.4 µM; in the assay on IGROV1 ovarian, 20 µM; with LOX IMVI melanoma, 18.2 µM; with MDA-MB-231 breast, 17.4 µM; in the assay with NCI-H23 lung, 16.5 µM; in the assay with RPMI-8226 leukemia, 0.0515 µM. Moreover, the GI50 in the assay with SF-539 CNS is 18.6 µM; in the assay with SN12C renal, 16.1 µM; in the assay on TK-10 renal, 18.1 µM. In addition, the TGI was 30.2 µM with HT29 colon; 37.7 µM in the assay with IGROV1 ovarian; 38.7 µM in the assay with LOX IMVI melanoma; 36.5 µM in the assay with MDA-MB-231 breast; 33.9 µM in the assay with NCI-H23 lung; 0.833 µM in the assay with RPMI-8226 leukemia. Also, the TGI in the assay with SF-539 CNS is 38.2 µM; in the assay with SN12C renal it was 34.8 µM; in the assay with TK-10 renal, 34.2 µM.

For the origin of these results see PubChem BioAssay (NCI).
